Measured values published in ChEMBL document CHEMBL4138065, “Protein-ligand (un)binding kinetics as a new paradigm for drug discovery at the crossroad between experiments and modelling” (Medchemcomm, 2017).

biological target: T1, C5a anaphylatoxin chemotactic receptor 1 (Homo sapiens) (UniProt P21730); assay: Antagonist activity at of C5aR in human macrophages assessed as half life of residence time for maintaining reduction in C5a-induced macrophage response; format: functional
T1 sequence (whole entry): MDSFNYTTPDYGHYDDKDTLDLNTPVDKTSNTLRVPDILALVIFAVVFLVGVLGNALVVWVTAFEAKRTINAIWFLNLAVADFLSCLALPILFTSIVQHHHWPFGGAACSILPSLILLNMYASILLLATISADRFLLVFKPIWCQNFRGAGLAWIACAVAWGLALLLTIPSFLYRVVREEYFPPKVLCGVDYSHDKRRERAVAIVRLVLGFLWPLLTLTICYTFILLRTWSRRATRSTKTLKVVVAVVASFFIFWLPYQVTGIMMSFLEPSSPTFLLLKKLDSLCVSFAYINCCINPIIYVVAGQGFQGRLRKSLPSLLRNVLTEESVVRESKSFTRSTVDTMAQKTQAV

`CCc1cccc(CC)c1-c1cc(OC(C)C)c2c(n1)CCCC2Nc1ccccc1CCO` (stereo not drawn) and `COc1ccc2c(c1)C(C(=O)N(Cc1ccc(N(C)C)cc1)c1ccc(C(C)C)cc1)CCC2` (stereo not drawn) fall in the same range of T1/2: 1 to 3 h for the first, 1 to 3 h for the second.

In the case of `CC(=O)N[C@@H](Cc1ccccc1)C(=O)N[C@H]1CCCNC(=O)[C@H](CCCN=C(N)N)NC(=O)[C@H](Cc2c[nH]c3ccccc23)NC(=O)[C@@H](CC2CCCCC2)NC(=O)[C@@H]2CCCN2C1=O`, the T1/2 is reported as 20 h.
